Legend:
[1] = target: T1, human Adenosine A2b receptor (Homo sapiens, UniProt P29275); experiment: Adenosine receptor TR-FRET binding assay (CA200645 displacement), A2b; settings: 30 nM CA200645, CHO cell membranes, 2 hours at room temperature
T1 construct: expressed in transfected cells; host or cells: CHO cell membranes
T1 sequence (P29275 1-332): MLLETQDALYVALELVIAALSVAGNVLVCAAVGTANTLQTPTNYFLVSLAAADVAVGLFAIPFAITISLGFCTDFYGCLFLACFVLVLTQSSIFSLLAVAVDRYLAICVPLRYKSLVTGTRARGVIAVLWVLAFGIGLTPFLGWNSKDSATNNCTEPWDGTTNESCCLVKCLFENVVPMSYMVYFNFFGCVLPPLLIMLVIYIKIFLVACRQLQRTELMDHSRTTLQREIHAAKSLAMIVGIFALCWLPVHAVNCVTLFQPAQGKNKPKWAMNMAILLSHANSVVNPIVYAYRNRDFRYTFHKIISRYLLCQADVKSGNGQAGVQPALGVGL

[2] = target: T2, human Adenosine A2a receptor (Homo sapiens, UniProt P29274); experiment: Adenosine receptor TR-FRET binding assay (CA200645 displacement), A2a; settings: 100 nM CA200645, CHO cell membranes, 2 hours at room temperature
T2 construct: expressed in transfected cells; host or cells: CHO cell membranes
T2 sequence (P29274 whole entry): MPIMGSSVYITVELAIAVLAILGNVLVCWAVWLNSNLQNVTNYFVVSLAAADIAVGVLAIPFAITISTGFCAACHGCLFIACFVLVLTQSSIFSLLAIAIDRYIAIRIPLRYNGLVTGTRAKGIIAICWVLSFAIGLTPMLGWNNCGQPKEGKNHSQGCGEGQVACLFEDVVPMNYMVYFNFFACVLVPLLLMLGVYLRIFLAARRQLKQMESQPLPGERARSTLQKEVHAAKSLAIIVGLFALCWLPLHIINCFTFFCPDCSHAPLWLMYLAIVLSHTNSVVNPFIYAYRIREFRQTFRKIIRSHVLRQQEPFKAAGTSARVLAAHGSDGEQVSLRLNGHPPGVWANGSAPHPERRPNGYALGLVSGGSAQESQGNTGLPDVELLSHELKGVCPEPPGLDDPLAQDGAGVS

human PBMCs = experiment: CD3/CD28 stimulated IL-2 release NECA reversal assay in human PBMCs; format: cell-based; settings: PBMC, CD3/CD28 antibody stimulated, 1 uM NECA, 24 hours, IL-2 in culture supernatant;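 further: dose-response as % inhibition where 100% equals no-NECA control wells with CD3/CD28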
Procedure: Blood is drawn from healthy volunteers using sodium citrate as the anticoagulant (0.3% final concentration). After centrifugation of the blood over Histopaque-1077, PBMCs are collected from the Histopaque/plasma interface and washed twice in PBS (300 g for 10 mins at room temp). Cells are plated at 50,000 cells/well in 150 μl RPMI/10% FCS in 96-well cell culture plates that have been precoated with 1 ug/ml CD3 antibody. 50 μl diluted compound mix is added to the cells, to obtain final concentrations of 1 ug/ml CD28 antibody, 1 uM NECA and 0.003-10 μM adenosine receptor antagonist. Assay plates are incubated for 24 hours at 37° C. in a humidified incubator. Culture supernatant is tested for IL-2 levels using the human IL-2 Tissue Culture Kit (Meso Scale Discovery).

[3] = system: CD8+ T cells in human whole blood; experiment: Measurement of pCREB in CD8+ T cells in human whole blood; format: cell-based; settings: T-cell, 1 h; heparinised human whole blood, rolipram, 3 μM NECA, 60 min, phospho-CREB in CD8+ T cells by FACS
Procedure: Heparinised human whole blood was pre-incubated at 37° C. with serial dilutions of A2a antagonists for 20 min. and the phosphodiesterase inhibitor rolipram to amplify the pCREB response. The adenosine receptor agonist NECA is then added at a final concentration of 3 μM and following a 60 min incubation the blood is fixed and red blood cells lysed. White blood cells are isolated, permeabilized and stained with directly conjugated fluorescent antibodies to phospho-CREB (Alexa Fluor 488) and CD8 (Alexa Fluor 647) and the level of phospho-CREB in CD8+ T cells is measured by FACS using a BD Accuri C6 Flow Cytometer.

[4] = target: T3, human Adenosine A3 receptor (Homo sapiens, UniProt P0DMS8); experiment: Adenosine receptor TR-FRET binding assay (CA200645 displacement), A3
T3 sequence (P0DMS8 1-318): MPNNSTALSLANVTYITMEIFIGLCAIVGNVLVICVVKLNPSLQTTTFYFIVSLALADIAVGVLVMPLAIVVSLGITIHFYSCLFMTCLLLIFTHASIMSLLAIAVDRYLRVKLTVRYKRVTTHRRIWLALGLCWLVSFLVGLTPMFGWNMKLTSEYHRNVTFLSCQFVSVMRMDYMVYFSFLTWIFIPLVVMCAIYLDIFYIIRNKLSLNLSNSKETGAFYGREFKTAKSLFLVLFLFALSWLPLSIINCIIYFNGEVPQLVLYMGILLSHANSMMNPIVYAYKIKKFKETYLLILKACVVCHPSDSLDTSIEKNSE

[5] = target: T4, human Adenosine A1 receptor (Homo sapiens, UniProt P30542); experiment: Adenosine receptor TR-FRET binding assay (CA200645 displacement), A1
T4 sequence (P30542 1-326): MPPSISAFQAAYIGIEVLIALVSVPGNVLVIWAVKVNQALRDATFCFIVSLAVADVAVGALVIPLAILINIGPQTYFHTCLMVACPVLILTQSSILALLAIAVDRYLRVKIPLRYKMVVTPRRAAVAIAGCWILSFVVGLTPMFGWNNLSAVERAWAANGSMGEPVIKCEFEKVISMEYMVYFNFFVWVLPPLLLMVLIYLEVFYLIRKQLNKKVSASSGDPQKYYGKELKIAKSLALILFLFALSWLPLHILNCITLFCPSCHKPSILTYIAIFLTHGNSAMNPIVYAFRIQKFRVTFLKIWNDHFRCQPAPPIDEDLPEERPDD

SMILES	Ki [1] [nM]	Ki [2] [nM]	IC50 [3] [nM]	Ki [4] [nM]	Ki [5] [nM]	IC50 (human PBMCs) [nM]
Cc1cc(-c2c(-c3cccc(C#N)c3)nn3ccc(C(=O)NCC(C)(C)O)nc23)cc(C)n1 [Example 10, 2-(3-Cyanophenyl)-3-(2,6-dimethyl-4-pyridyl)-N-(2-hydroxy-2-methyl-propyl)pyrazolo[1,5-a]pyrimidine-5-carboxamide]	19	0.4	80	> 1000	236	6
Cc1cc(-c2c(-c3cccc(C#N)c3)nn3ccc(NCC(C)(C)O)nc23)cc(C(F)F)n1 [Example 23, 3-[3-[2-(Difluoromethyl)-6-methyl-4-pyridyl]-5-[(2-hydroxy-2-methyl-propyl)amino]pyrazolo[1,5-a]pyrimidin-2-yl]benzonitrile]	53	0.6	390	> 1000	42	20
Cc1cc(-c2c(-c3cccc(C#N)c3)nn3ccc(NCc4nnc[nH]4)nc23)cc(Cl)n1 [Example 2.23]	3	6.4	570	> 1000	55	24
Cc1cc(-c2c(-c3cccc(C#N)c3)nn3ccc(N)nc23)cc(C)n1 [Example 1.6, 3-[5-amino-3-(2,6-dimethyl-4-pyridyl)pyrazolo[1,5-a]pyrimidin-2-yl]benzonitrile]	9	2.2	250	> 1000	37	57
Cc1cc(-c2c(-c3cccc(C#N)c3)nn3ccc(NC4CCN(S(C)(=O)=O)CC4)nc23)cc(Cl)n1 [Example 2.11]	34	1.5	1330	> 1000	176	5
Cc1cc(-c2c(-c3cccc(C#N)c3)nn3ccc(N[C@H](C)CO)nc23)cc(Cl)n1 [Example 3.3]	2	0.3	210	> 1000		1
Cc1cc(-c2c(-c3cccc(C#N)c3)nn3ccc(C(=O)N[C@@H]4COC[C@]4(C)O)nc23)cc(C)n1 [Example 92.12]	44	0.8	150	> 1000	274	
Cc1cc(-c2c(-c3cccc(C#N)c3)nn3ccc(C(=O)NCC4CCCN(C)C4=O)nc23)cc(C)n1 (centres unmarked) [Example 92.14]	10	0.4	60	> 1000	79	
Cc1cc(-c2c(-c3cccc(C#N)c3)nn3ccc(C(=O)N[C@H]4CC[C@](C)(O)CC4)nc23)cc(C)n1 [Example 92.22]	29	0.6	370	> 1000	204	
Cc1cc(-c2c(-c3cccc(C#N)c3)nn3ccc(C(=O)N[C@H]4CN(C)C[C@H]4O)nc23)cc(C)n1 [Example 92.34]	32	1.5	140	> 1000	428	
Cc1cc(-c2c(-c3cccc(C#N)c3)nn3ccc(C(=O)NC(C)(C)C)nc23)cc(N)n1 [Example 91, 3-(2-Amino-6-methyl-4-pyridyl)-N-tert-butyl-2-(3-cyanophenyl)pyrazolo [1,5-a]pyrimidine-5-carboxamide]	71	0.2	340	1040	102	
Cc1cc(-c2c(-c3cccc(C#N)c3)nn3ccc(N4CCO[C@@H](C(=O)O)C4)nc23)cc(Cl)n1 [Example 2.24]	58	6.9	2760		255	92
COCC(C)(C#N)NC(=O)c1ccn2nc(-c3cccc(C#N)c3)c(-c3cc(C)nc(Cl)c3)c2n1 (centres unmarked) [Example 6.11, 3-(2-Chloro-6-methyl-4-pyridyl)-N-(1-cyano-2-methoxy-1-methyl-ethyl)-2-(3-cyanophenyl)pyrazolo[1,5-a]pyrimidine-5-carboxamide]	3	0.1	20	379	32	
Cc1cc(-c2c(-c3cccc(C#N)c3)nn3ccc(C(=O)N[C@H]4C[C@@](C)(O)C4)nc23)cc(C)n1 [Example 92.24]	23	1.3	330	> 1000	347	

More lines, in order of falling Ki [1], values ahead:

Ki [1] [nM]	Ki [2] [nM]	IC50 [3] [nM]	Ki [4] [nM]	Ki [5] [nM]	SMILES	IC50 (human PBMCs) [nM]
2550	24.1		2120	125	Cc1cccnc1CN1CCN(c2ccn3nc(-c4ccco4)c(C#N)c3n2)CC1 [Example 51, 2-(2-Furyl)-5-[4-[(3-methyl-2-pyridyl)methyl]piperazin-1-yl]pyrazolo[1,5-a]pyrimidine-3-carbonitrile]	73
384	44.7		> 1000	59	Fc1cccc(-c2cc3nc(NCc4ccccc4)ccn3n2)c1 [Example 66, N-benzyl-2-(3-fluorophenyl)pyrazolo[1,5-a]pyrimidin-5-amine]	869
117	0.5	150	> 1000	591	Cc1cc(-c2c(-c3cccc(C#N)c3)nn3ccc(C(=O)N[C@H](C)C(C)(C)O)nc23)cc(C)n1 [Example 92.10]	
101	1	100	> 1000	282	Cc1cc(-c2c(-c3cccc(C#N)c3)nn3ccc(C(=O)N[C@@H]4COC[C@@]4(C)O)nc23)cc(C)n1 [Example 92.13]	
21	1.5	2100	> 1000	217	Cc1cc(-c2c(-c3cccc(C#N)c3)nn3ccc(C(=O)NOCC(C)(C)O)nc23)cc(C)n1 [Example 92.11]	
20	3.7	590	> 1000	145	Cc1cc(-c2c(-c3cccc(C#N)c3)nn3ccc(NC(=O)C(C)(C)O)nc23)cc(C)n1 [Example 94.5, N-[2-(3-cyanophenyl)-3-(2,6-dimethyl-4-pyridyl)pyrazolo[1,5-a]pyrimidin-5-yl]-2-hydroxy-2-methyl-propanamide]	16
17	0.7	110	> 1000	288	Cc1cc(-c2c(-c3cccc(C#N)c3)nn3ccc(C(=O)NCC4(C)COC(=O)N4)nc23)cc(C)n1 (centres unmarked) [Example 92.21]	
14	1.8	120	> 1000	47	Cc1cc(-c2c(-c3cccc(C#N)c3)nn3ccc(NC(N)=O)nc23)cc(C)n1 [Example 30.3, [2-(3-Cyanophenyl)-3-(2,6-dimethyl-4-pyridyl)pyrazolo[1,5-a]pyrimidin-5-yl]urea]	50
2	2.1	2010		3	N#Cc1cccc(-c2nn3ccc(N)nc3c2-c2ccncc2)c1 [Example 1, 3-[5-Amino-3-(4-pyridyl)pyrazolo[1,5-a]pyrimidin-2-yl]benzonitrile]	305
